The source made the active and inactive calls. The calls are words filed in the database; no cut-off is given here.
What was measured:
Streptomyces [1] = experiment: Inhibition of hyphae formation in Streptomyces 85E at 40 ug/disk after 30 hrs by HF1 assay; format: functional, organism-based
Streptomyces [2] = experiment: Inhibition of hyphae formation in Streptomyces 85E at 80 ug/disk after 30 hrs by HF1 assay; format: functional; settings: for zone of inhibition at 80 µg/disc: read-out: IZ

| Compound | Activity (Streptomyces [1]) | zone of inhibition at 80 µg/disc (Streptomyces [2]) | Activity (Streptomyces [2]) |
| --- | --- | --- | --- |
| COC1=C(Br)[C@H](O)[C@@]2(C=C1Br)CC(C(=O)NCCC(O)CCNC(=O)C1=NO[C@]3(C=C(Br)C(OC)=C(Br)[C@@H]3O)C1)=NO2 | inactive | 11 mm |  |
| COC1=C(Br)[C@H](O)[C@@]2(C=C1Br)CC(C(=O)NCCCCNC(=O)C1=NO[C@]3(C=C(Br)C(OC)=C(Br)[C@@H]3O)C1)=NO2 |  |  | inactive |
| CCCc1cc(O)c2c(c1)C(C1c3cc(O)cc(O)c3C(=O)c3c(O)cc(C(O)CC)cc31)c1cc(O)cc(O)c1C2=O (stereo not given) | inactive | 11 mm |  |

Reference: ChEMBL document CHEMBL1147160, “Bioactive constituents from the marine crinoid Himerometra magnipinna” (2007)
